Measured values from patent US20210371413A1, “POLYCYCLIC AMIDES AS CYTOTOXIC AGENTS” (FEMTOGENIX LIMITED, priority 2018, published 2021).

Legend:
DS3 DNA fragment = assay: DNA footprinting, DS3 DNA fragment; type: binding
Description: The DNA sequence selectivity profile of the molecules was investigated using a modification of the previously established DNA footprinting assay. Following an overnight incubation of the ligand-DNA complexes, the mixture was mixed with strand separation buffer containing 10 mM EDTA, 10 mM NaOH, 0.1% bromophenol blue, 80% formamide and incubated at 100° C. for 3 min. The mixture was then immediately cooled on ice and run on an 8% denaturing gel.
The preparation of the DS3 DNA fragment (FIG. 5) and the “D” DNA fragment (FIG. 6) has been previously described. Briefly, the sequence which had been cloned into the BamHI site of pUC18 was obtained by cutting with HindIII and EcoRI. Radiolabelled DNA fragments were prepared by filling in the 3′-end of the HindIII site with [α-^32P]dATP using Klenow DNA polymerase (exo-).
The radiolabelled DNA fragment was separated from the remainder of the plasmid DNA on a 6% non-denaturing polyacrylamide gel. The gel (20 cm long, 0.3 mm thick) was run at 400 V in 1×TBE running buffer for about 1-2 h, until the bromophenol blue had run most of the way down the gel. The glass plates were separated and the position of the labelled DNA fragment was established by short (1 min) exposure to an X-ray film. The relevant band was then cut from the gel and the radiolabelled DNA eluted by adding 300 μL 10 mM Tris-HCl, pH 7.5 containing 0.1 mM EDTA and gently agitating overnight at room temperature. The eluted DNA was finally precipitated with ethanol and re-suspended in a suitable volume of 10 mM Tris-HCl, pH 7.5 containing 0.1 mM EDTA buffer so as to give at least 10 counts per second/μL on a hand-held Geiger counter. […]
Footprinting reactions were performed as previously described using the DNA fragments DS3, which contains tracts of AT/GC bases; and using the “D” DNA fragments which represents a random DNA sequence. […] After gel purification, the radiolabelled DNA was dissolved in 10 mM Tris-HCl pH 7.5 containing 0.1 mM EDTA, at a concentration of about 10 c.p.s per μL as determined on a hand held Geiger counter. […]

[1] = system: Klebsiella pneumoniae KP4631; assay: MIC assay, Klebsiella pneumoniae KP4631; type: cell-based; details: Klebsiella pneumoniae, KP4631
Description: The antimicrobial activity of a selection of compounds were evaluated in a Gram-negative, Gram-positive and multi-resistant bacteria using the standard minimum inhibitory concentration (MIC) assay for an overnight (16-20 hour) incubation period. Commercially marketed antibiotics (Table 3) were used as positive controls during the study.
Mueller-Hinton broth (MH Broth) (Sigma-Aldrich; Millipore, cat. no. 70192) and Mueller-Hinton agar (MHA) (Sigma-Aldrich; Millipore, cat. no. 70191) were prepared as per manufacturer's instructions and sterilized by autoclaving. Approximately 20 mL of MHA was poured onto 15×100 mm petri dishes and allowed to set. Agar plates were then stored in plastic bags in an inverted position at 4° C.
Bacterial strains were provided in the form of a glycerol stock, stored at −80° C. For the purpose of preparation of bacterial suspension, appropriate strains were removed from −80° C. storage onto dry ice and not allowed to freeze-thaw.
Stock solutions of 16, 45 and 73 were provided in DMSO at 1.28 mg/mL concentration. From this stock solution, working solutions of the desired concentration were prepared by diluting with MHB.
MIC assay methodology was adapted from previously published work.
Bacterial isolate to be tested was streaked onto a nutrient-rich MH agar plate and incubated overnight at 37° C. in order to obtain single colonies.
After overnight incubation, single colonies with the same morphological appearance were chosen from the agar plate. These were touched using a sterile loop and transferred into a tube containing 10 mL of a MH broth. They were then mixed using vortex mixer and incubated at 35-37° C. in a shaker at 200 r.p.m. overnight.
Determination of OD600 and cfu/mL count OD600 (the optical density of a sample measured at a wavelength of 600 nm) of the overnight culture was measured. Because of the loss of linearity at OD600 values […], it was necessary to dilute the sample until the OD600 value was below 1.0. For all tested bacteria, a dilution of 1:10 was appropriate (100 μL in 900 μL broth).
The overnight culture was then diluted 1:100 using sterile tubes and MH broth (dilution: 10^−2). Serial dilution was then performed six times until dilution of 10^−8 was reached. 100 μL of dilutions 10^−7 and 10^−8 were plated onto MH agar plates in triplicate using a sterile cell spreader and incubated overnight at 37° C.
After overnight incubation, colonies on plates were counted and cfu per mL calculated. The following formula was applied: […]
After overnight incubation, the OD600 was measured and the overnight culture was diluted accordingly to obtain 1×10^8 cfu/mL. […]
The 96-well plates were read using a SpectraMax plate reader at an absorbance of 600 nm. […]

Compound: COc1cc2c(cc1OCCCC(=O)Nc1cc(C(=O)Nc3ccc(-c4cc(C(=O)Nc5ccc(N)cc5)n(C)c4)cc3)n(C)c1)NC[C@@H]1CCCCN1C2=O [Compound 16, (S)—N-(4-Aminophenyl)-4-(4-(4-(4-((2-methoxy-12-oxo-5,6,6a,7,8,9,10,12-octahydrobenzo[e]pyrido[1,2-a][1,4]diazepin-3-yl)oxy)butanamido)-1-methyl-1H-pyrrole-2-carboxamido)phenyl)-1-methyl-1H-pyrrole-2-carboxamide]
- DNA binding pattern (footprint) (DS3 DNA fragment; DS3 DNA sequence): predominantly target AT rich regions
- DNA-binding site sequence (X any base, W A or T) (DS3 DNA fragment; from DNA footprinting, fragment not stated): XXXXWWW
- MIC [1]: > 8 mg/L
